Laboratory results from PubChem BioAssay AID248 (DTP/NCI, 2004).
“And” between values parts separate entries of the source, which are not always exact repeats. Equal entries are not always repeated. Toxic doses and inconclusive results are not listed.

System: L1210 leukemia ip in BDF1 mice, survival T/C
Test: NCI In Vivo Anticancer Drug Screen. Data for tumor model L1210 Leukemia (intraperitoneal) in B6D2F1 (BDF1) mice
Settings: endpoint: mean survival time, higher = longer survival
Summary of the method: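 Mice bearing the transplanted tumor received compound or vehicle. Survival of the treated group was divided by that of the vehicle-treated control group to give the ratio.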

[1] = dose: 100.0 mg/kg/injection, schedule: Q04DX003 (ip), vehicle: Klucel (hydroxypropylcellulose) (HPC)
[2] = dose: 200.0 mg/kg/injection, schedule: Q04DX003 (ip), vehicle: Klucel (hydroxypropylcellulose) (HPC)
[3] = dose: 100.0 mg/kg/injection, schedule: Q01DX009 (ip), vehicle: saline with Tween-80
[4] = dose: 100.0 mg/kg/injection, schedule: Q04DX003 (ip), vehicle: saline with Tween-80
[5] = dose: 200.0 mg/kg/injection, schedule: Q01DX009 (ip), vehicle: saline with Tween-80
[6] = dose: 200.0 mg/kg/injection, schedule: Q04DX003 (ip), vehicle: saline with Tween-80
[7] = dose: 400.0 mg/kg/injection, schedule: Q01DX009 (ip), vehicle: saline with Tween-80
[8] = dose: 400.0 mg/kg/injection, schedule: Q04DX003 (ip), vehicle: saline with Tween-80
[9] = dose: 100.0 mg/kg/injection, schedule: Q04DX002 (ip), vehicle: saline with Tween-80
[10] = dose: 200.0 mg/kg/injection, schedule: Q04DX002 (ip), vehicle: saline with Tween-80
[11] = dose: 100.0 mg/kg/injection, schedule: Q01DX009 (ip), vehicle: Klucel (hydroxypropylcellulose) (HPC)
[12] = dose: 100.0 mg/kg/injection, schedule: Q01DX009 (ip), vehicle: saline
[13] = dose: 100.0 mg/kg/injection, schedule: Q04DX003 (ip), vehicle: saline
[14] = dose: 200.0 mg/kg/injection, schedule: Q04DX003 (ip), vehicle: saline
[15] = dose: 400.0 mg/kg/injection, schedule: Q01DX009 (ip), vehicle: Klucel (hydroxypropylcellulose) (HPC)
[16] = dose: 400.0 mg/kg/injection, schedule: Q04DX003 (ip), vehicle: Klucel (hydroxypropylcellulose) (HPC)
[17] = dose: 400.0 mg/kg/injection, schedule: Q04DX003 (ip), vehicle: saline

## COc1ccccc1OS(=O)(=O)c1ccc(C)cc1
dose: 50.0 mg/kg/injection, schedule: Q04DX003 (ip), vehicle: Klucel (hydroxypropylcellulose) (HPC)
  T/C: 105 % of control
[1]
  T/C: 104 % of control
[2]
  T/C: 105 % of control

## NC1=NC(CCc2ccccc2)N(c2cccc(Cl)c2)C(N)=N1 (centres undefined)
dose: 6.25 mg/kg/injection, schedule: Q01DX001 (ip), vehicle: saline
  T/C: 104 % of control
dose: 12.5 mg/kg/injection, schedule: Q01DX001 (ip), vehicle: saline
  T/C: 98 % of control
dose: 25.0 mg/kg/injection, schedule: Q01DX001 (ip), vehicle: saline
  T/C: 106 % of control

## COc1ccc2c(c1)c1c(C)c3cnccc3c(C)c1n2CCCN1C(=O)c2ccccc2C1=O
dose: 50.0 mg/kg/injection, schedule: Q04DX003 (ip), vehicle: saline with Tween-80
  T/C: 94 % of control
[3]
  T/C: 96 % of control
[4]
  T/C: 92 % of control
[5]
  T/C: 101 % of control
[6]
  T/C: 93 % of control
dose: 400.0 mg/kg/injection, schedule: Q01DX001 (oral), vehicle: saline with Tween-80
  T/C: 110 % of control
[7]
  T/C: 101 % of control
[8]
  T/C: 94 % of control
dose: 800.0 mg/kg/injection, schedule: Q01DX001 (oral), vehicle: saline with Tween-80
  T/C: 108 % of control
dose: 1600.0 mg/kg/injection, schedule: Q01DX001 (oral), vehicle: saline with Tween-80
  T/C: 112 % of control

## CC(=O)Nc1ccc(NC(=O)c2ccccc2Cl)cc1
[3]
  T/C: 93 % of control and 102 % of control
[9]
  T/C: 105 % of control and 90 % of control
[4]
  T/C: 98 % of control
[5]
  T/C: 96 % of control and 97 % of control
[10]
  T/C: 90 % of control and 91 % of control
[6]
  T/C: 95 % of control
[7]
  T/C: 117 % of control and 91 % of control
dose: 400.0 mg/kg/injection, schedule: Q04DX002 (ip), vehicle: saline with Tween-80
  T/C: 101 % of control and 110 % of control
[8]
  T/C: 98 % of control

## CCOC(=O)c1ccc(=O)[nH]c1
[11]
  T/C: 102 % of control
[12]
  T/C: 88 % of control
[1]
  T/C: 96 % of control
[13]
  T/C: 116 % of control and 100 % of control
dose: 200.0 mg/kg/injection, schedule: Q01DX009 (ip), vehicle: Klucel (hydroxypropylcellulose) (HPC)
  T/C: 100 % of control
dose: 200.0 mg/kg/injection, schedule: Q01DX009 (ip), vehicle: saline
  T/C: 96 % of control
[2]
  T/C: 98 % of control
[14]
  T/C: 101 % of control and 100 % of control
[15]
  T/C: 95 % of control
dose: 400.0 mg/kg/injection, schedule: Q01DX009 (ip), vehicle: saline
  T/C: 93 % of control
[16]
  T/C: 90 % of control
[17]
  T/C: 104 % of control and 96 % of control

## N#[N+]c1c(C(=O)O)[nH]c(=O)[nH]c1=O
dose: 6.25 mg/kg/injection, schedule: Q01DX009 (ip), vehicle: saline
  T/C: 99 % of control
dose: 10.0 mg/kg/injection, schedule: Q01DX001 (ip), vehicle: carboxymethylcellulose (CMC)
  T/C: 92 % of control
dose: 12.5 mg/kg/injection, schedule: Q01DX009 (ip), vehicle: saline with Tween-80
  T/C: 98 % of control
dose: 12.5 mg/kg/injection, schedule: Q01DX009 (ip), vehicle: saline
  T/C: 96 % of control
dose: 12.5 mg/kg/injection, schedule: Q01DX Z (ip), vehicle: methylcellulose (MC)
  T/C: 94 % of control
dose: 20.0 mg/kg/injection, schedule: Q01DX001 (ip), vehicle: carboxymethylcellulose (CMC)
  T/C: 95 % of control
dose: 20.0 mg/kg/injection, schedule: Q01DX009 (ip), vehicle: carboxymethylcellulose (CMC)
  T/C: 96 % of control
dose: 25.0 mg/kg/injection, schedule: Q01DX009 (ip), vehicle: saline with Tween-80
  T/C: 102 % of control
dose: 25.0 mg/kg/injection, schedule: Q01DX009 (ip), vehicle: saline
  T/C: 98 % of control
dose: 25.0 mg/kg/injection, schedule: Q01DX Z (ip), vehicle: methylcellulose (MC)
  T/C: 101 % of control
dose: 40.0 mg/kg/injection, schedule: Q01DX001 (ip), vehicle: carboxymethylcellulose (CMC)
  T/C: 104 % of control
dose: 40.0 mg/kg/injection, schedule: Q01DX009 (ip), vehicle: carboxymethylcellulose (CMC)
  T/C: 108 % of control
dose: 50.0 mg/kg/injection, schedule: Q01DX009 (ip), vehicle: saline with Tween-80
  T/C: 95 % of control and 92 % of control
dose: 50.0 mg/kg/injection, schedule: Q01DX009 (ip), vehicle: saline
  T/C: 99 % of control
dose: 50.0 mg/kg/injection, schedule: Q01DX Z (ip), vehicle: carboxymethylcellulose (CMC)
  T/C: 155 % of control
dose: 50.0 mg/kg/injection, schedule: Q01DX Z (ip), vehicle: methylcellulose (MC)
  T/C: 121 % of control
dose: 80.0 mg/kg/injection, schedule: Q01DX001 (ip), vehicle: carboxymethylcellulose (CMC)
  T/C: 101 % of control
dose: 80.0 mg/kg/injection, schedule: Q01DX009 (ip), vehicle: carboxymethylcellulose (CMC)
  T/C: 96 % of control
[3]
  T/C: 107 % of control and 92 % of control
[12]
  T/C: 103 % of control
dose: 100.0 mg/kg/injection, schedule: Q01DX Z (ip), vehicle: methylcellulose (MC)
  T/C: 100 % of control
[4]
  T/C: 95 % of control
dose: 150.0 mg/kg/injection, schedule: Q01DX009 (ip), vehicle: saline
  T/C: 90 % of control
[5]
  T/C: 97 % of control
[6]
  T/C: 97 % of control
dose: 300.0 mg/kg/injection, schedule: Q01DX009 (ip), vehicle: saline
  T/C: 101 % of control
[8]
  T/C: 103 % of control
dose: 800.0 mg/kg/injection, schedule: Q04DX003 (ip), vehicle: saline with Tween-80
  T/C: 97 % of control

## CCOc1ccccc1/C=N\NC(=O)c1ccco1
dose: 100.0 mg/kg/injection, schedule: Q01DX001 (ip), vehicle: carboxymethylcellulose (CMC)
  T/C: 106 % of control
dose: 200.0 mg/kg/injection, schedule: Q01DX001 (ip), vehicle: carboxymethylcellulose (CMC)
  T/C: 95 % of control
dose: 400.0 mg/kg/injection, schedule: Q01DX001 (ip), vehicle: carboxymethylcellulose (CMC)
  T/C: 104 % of control

## CN1CCS(=O)(=O)C1=O
dose: 9.5 mg/kg/injection, schedule: Q01DX001 (ip), vehicle: saline
  T/C: 98 % of control
dose: 19.0 mg/kg/injection, schedule: Q01DX001 (ip), vehicle: saline
  T/C: 98 % of control
dose: 38.0 mg/kg/injection, schedule: Q01DX001 (ip), vehicle: saline
  T/C: 109 % of control

## CCCCOC(=O)CC(=O)OCCCC
[11]
  T/C: 96 % of control
[1]
  T/C: 88 % of control
[2]
  T/C: 95 % of control
[15]
  T/C: 86 % of control
[16]
  T/C: 97 % of control

## COc1ccc(CC2(C#N)c3ccccc3C=CN2C(=O)c2ccccc2)c([N+](=O)[O-])c1OC (centres undefined)
dose: 50.0 mg/kg/injection, schedule: Q04DX002 (ip), vehicle: saline with Tween-80
  T/C: 97 % of control
[9]
  T/C: 87 % of control
[10]
  T/C: 97 % of control

## C/C(=C(/CCO)SCCC(=O)c1ccc(C)cc1)N(C=O)Cc1cnc(C)nc1N
[13]
  T/C: 97 % of control
[14]
  T/C: 97 % of control
[17]
  T/C: 93 % of control

## CCC(=O)/C=C/C1C(C)=CCCC1(C)C (centres undefined)
[3]
  T/C: 86 % of control
[13]
  T/C: 100 % of control
[5]
  T/C: 90 % of control
[14]
  T/C: 102 % of control
[17]
  T/C: 100 % of control

## O=C(O)CNC(=O)/C(=C\c1[nH]c(=O)[nH]c(=O)c1Br)NC(=O)c1ccccc1
[3]
  T/C: 92 % of control
[4]
  T/C: 104 % of control
[5]
  T/C: 91 % of control
[6]
  T/C: 104 % of control
[7]
  T/C: 96 % of control
[8]
  T/C: 107 % of control

## O=C(O)CC1=C(O)c2ccccc2C(=O)C1=O
dose: 100.0 mg/kg/injection, schedule: Q01DX001 (ip), vehicle: water
  T/C: 97 % of control
dose: 200.0 mg/kg/injection, schedule: Q01DX001 (ip), vehicle: water
  T/C: 103 % of control
dose: 400.0 mg/kg/injection, schedule: Q01DX001 (ip), vehicle: water
  T/C: 97 % of control

## S=C(N/N=C\c1ccccc1)N/N=C/c1ccccc1
dose: 100.0 mg/kg/injection, schedule: Q04DX002 (ip), vehicle: gum acacia
  T/C: 93 % of control
dose: 200.0 mg/kg/injection, schedule: Q04DX002 (ip), vehicle: gum acacia
  T/C: 96 % of control
dose: 400.0 mg/kg/injection, schedule: Q04DX002 (ip), vehicle: gum acacia
  T/C: 93 % of control
